pIC50: −log10 of the molar value.
What was measured:
CDK2/Cyclin E1 = CDK2/Cyclin E1 (Homo sapiens, UniProt P24941); assay: CDK2/Cyclin E1 Biochemical Assay (TR-FRET), 0.060 mM ATP; conditions: 0.15 μM Rb (Ser780)-biotin substrate, pH7.0, 60 min preincubation, 120 min reaction, room temperature
Method in brief: (§1)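 TR-FRET assay with 0.15 μM Rb (Ser780)-biotin substrate and 0-10 μM compound in 50 mM HEPES pH7.0, 50 mM MgCl2, 1 mM DTT. ATP was 0.060 mM for CDK2/Cyclin E1 and 0.015 mM for CDK1/Cyclin B1. Kinase was preincubated with compound 60 min, reacted 120 min at room temperature, and IC50 was fitted (four-parameter) from the 665/620 nm ratio.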

CDK1/Cyclin B1 = CDK1/Cyclin B1 (Homo sapiens, UniProt P06493); assay: CDK1/Cyclin B1 Biochemical Assay (TR-FRET), 0.015 mM ATP; conditions: 0.15 μM Rb (Ser780)-biotin substrate, pH7.0, 60 min preincubation, 120 min reaction, room temperature
Method in brief: as §1

Sequence of CDK1/Cyclin B1 (P06493 whole entry): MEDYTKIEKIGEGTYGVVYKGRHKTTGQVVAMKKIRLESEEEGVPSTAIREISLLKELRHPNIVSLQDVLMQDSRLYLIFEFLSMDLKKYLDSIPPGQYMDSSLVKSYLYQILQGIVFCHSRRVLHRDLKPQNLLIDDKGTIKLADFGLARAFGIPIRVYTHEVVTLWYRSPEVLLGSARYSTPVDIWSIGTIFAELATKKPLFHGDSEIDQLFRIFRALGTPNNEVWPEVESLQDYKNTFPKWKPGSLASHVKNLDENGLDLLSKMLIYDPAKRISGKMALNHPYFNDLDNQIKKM
Sequence of CDK1/Cyclin B1 (P14635 whole entry partner): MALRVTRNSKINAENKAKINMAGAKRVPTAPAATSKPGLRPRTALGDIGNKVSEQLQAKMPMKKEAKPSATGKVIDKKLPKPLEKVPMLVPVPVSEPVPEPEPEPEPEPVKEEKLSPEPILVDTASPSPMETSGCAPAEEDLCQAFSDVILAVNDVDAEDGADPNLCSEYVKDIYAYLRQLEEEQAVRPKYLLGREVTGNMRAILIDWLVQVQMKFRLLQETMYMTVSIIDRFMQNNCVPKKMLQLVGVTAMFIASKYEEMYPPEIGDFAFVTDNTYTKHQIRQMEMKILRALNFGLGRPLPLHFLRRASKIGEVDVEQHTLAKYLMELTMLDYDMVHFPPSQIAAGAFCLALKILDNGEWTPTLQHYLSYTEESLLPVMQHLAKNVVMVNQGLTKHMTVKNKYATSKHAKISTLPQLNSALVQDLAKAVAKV

CC(C)NC(=O)O[C@H]1CC[C@@H](c2cc(Nc3cc4c(cc3F)S(=O)(=O)N(CCO)C4)n[nH]2)C1 (relative stereo) [Example 47, cis-3-(3-((6-fluoro-2-(2-hydroxyethyl)-1,1-dioxido-2,3-dihydrobenzo[d]isothiazol-5-yl)amino)-1H-pyrazol-5-yl)cyclopentyl isopropylcarbamate]
pIC50 (CDK2/Cyclin E1): 6.80
pIC50 (CDK1/Cyclin B1): 5.13

CC1(NC(=O)O[C@H]2CC[C@@H](c3cc(Nc4ccc5c(c4F)CS(=O)(=O)N5CCO)n[nH]3)C2)COC1 (relative stereo) [Example 390, cis-3-(3-((4-fluoro-1-(2-hydroxyethyl)-2,2-dioxido-1,3-dihydrobenzo[c]isothiazol-5-yl)amino)-1H-pyrazol-5-yl)cyclopentyl(3-methyloxetan-3-yl)carbamate]
pIC50 (CDK2/Cyclin E1): 8.60
pIC50 (CDK1/Cyclin B1): 6.63

CC(C)NC(=O)O[C@@H]1CC[C@H](c2cc(Nc3ccc4c(c3)NS(=O)(=O)C4)n[nH]2)C1 (stereo in doubt) [Example 303a, cis-3-(3-((2,2-dioxido-1,3-dihydrobenzo[c]isothiazol-6-yl)amino)-1H-pyrazol-5-yl)cyclopentyl isopropylcarbamate]
pIC50 (CDK2/Cyclin E1): 8.59
pIC50 (CDK1/Cyclin B1): 7.32

CC(C)NC(=O)O[C@H]1CC[C@@H](c2cc(Nc3ccc4c(c3)CS(=O)(=O)N4C(C)C3CCOC3)n[nH]2)C1 (relative stereo) [Example 218, cis-3-(3-((2,2-dioxido-1-(1-(tetrahydrofuran-3-yl)ethyl)-1,3-dihydrobenzo[c]isothiazol-5-yl)amino)-1H-pyrazol-5-yl)cyclopentyl isopropylcarbamate]
pIC50 (CDK2/Cyclin E1): 6.95
pIC50 (CDK1/Cyclin B1): 6.00

CCCNC(=O)O[C@H]1CC[C@@H](c2cc(Nc3ccc4c(c3F)C(C)NS4(=O)=O)n[nH]2)C1 (single isomer, unassigned) [Example 53a, cis-3-(3-((4-fluoro-3-methyl-1,1-dioxido-2,3-dihydrobenzo[d]isothiazol-5-yl)amino)-1H-pyrazol-5-yl)cyclopentyl propylcarbamate]
pIC50 (CDK2/Cyclin E1): 8.20
pIC50 (CDK1/Cyclin B1): 6.44

CC(C)NC(=O)O[C@H]1CC[C@@H](c2cc(Nc3ccc4c(c3)N(C)S(=O)(=O)C4)n[nH]2)C1 (relative stereo) [Example 308, cis-3-(3-((1-methyl-2,2-dioxido-1,3-dihydrobenzo[c]isothiazol-6-yl)amino)-1H-pyrazol-5-yl)cyclopentyl isopropylcarbamate]
pIC50 (CDK2/Cyclin E1): 8.66
pIC50 (CDK1/Cyclin B1): 7.59

O=C(NC1COC1)O[C@H]1CC[C@@H](c2cc(Nc3ccc4c(c3F)CNS4(=O)=O)n[nH]2)C1 (relative stereo) [Example 149, cis-3-(3-((4-fluoro-1,1-dioxido-2,3-dihydrobenzo[d]isothiazol-5-yl)amino)-1H-pyrazol-5-yl)cyclopentyl oxetan-3-ylcarbamate]
pIC50 (CDK2/Cyclin E1): 7.38
pIC50 (CDK1/Cyclin B1): 6.18

CCCNC(=O)O[C@H]1CC[C@@H](c2cc(Nc3ccc4c(c3F)C(C)(C)NS4(=O)=O)n[nH]2)C1 (relative stereo) [Example 58, cis-3-(3-((4-fluoro-3,3-dimethyl-1,1-dioxido-2,3-dihydrobenzo[d]isothiazol-5-yl)amino)-1H-pyrazol-5-yl)cyclopentyl propylcarbamate]
pIC50 (CDK2/Cyclin E1): 7.03
pIC50 (CDK1/Cyclin B1): 6.16

CN1c2ccc(Nc3cc([C@@H]4CC[C@H](OC(=O)N[C@H]5CC[C@@H](O)CC5)C4)[nH]n3)cc2CS1(=O)=O (relative stereo) [Example 341, cis-3-(3-((1-methyl-2,2-dioxido-1,3-dihydrobenzo[c]isothiazol-5-yl)amino)-1H-pyrazol-5-yl)cyclopentyl((1s,4s)-4-hydroxycyclohexyl)carbamate]
pIC50 (CDK2/Cyclin E1): 8.33
pIC50 (CDK1/Cyclin B1): 7.11

CCCNC(=O)O[C@H]1CC[C@@H](c2cc(Nc3ccc4c(c3F)CN(C3COC3)S4(=O)=O)n[nH]2)C1 (relative stereo) [Example 136, cis-3-(3-((4-fluoro-2-(oxetan-3-yl)-1,1-dioxido-2,3-dihydrobenzo[d]isothiazol-5-yl)amino)-1H-pyrazol-5-yl)cyclopentyl propylcarbamate]
pIC50 (CDK2/Cyclin E1): 7.66
pIC50 (CDK1/Cyclin B1): 6.34

CN1c2ccc(Nc3cc([C@@H]4CC[C@H](OC(=O)NC5(C)CCOC5)C4)[nH]n3)cc2CS1(=O)=O (relative stereo) [Example 239, cis-3-(3-((1-methyl-2,2-dioxido-1,3-dihydrobenzo[c]isothiazol-5-yl)amino)-1H-pyrazol-5-yl)cyclopentyl(3-methyltetrahydrofuran-3-yl)carbamate]
pIC50 (CDK2/Cyclin E1): 8.02
pIC50 (CDK1/Cyclin B1): 6.80

CN1c2ccc(Nc3cc([C@@H]4CC[C@H](OC(=O)NC5(C)COC5)C4)[nH]n3)c(F)c2CS1(=O)=O (single isomer, unassigned) [Example 332b, cis-3-(3-((4-fluoro-1-methyl-2,2-dioxido-1,3-dihydrobenzo[c]isothiazol-5-yl)amino)-1H-pyrazol-5-yl)cyclopentyl(3-methyloxetan-3-yl)carbamate]
pIC50 (CDK2/Cyclin E1): 8.46
pIC50 (CDK1/Cyclin B1): 6.80

CC(C)NC(=O)O[C@H]1CC[C@@H](c2cc(Nc3cc(F)c4c(c3)S(=O)(=O)NC4)n[nH]2)C1 (relative stereo) [Example 179, cis-3-(3-((4-fluoro-1,1-dioxido-2,3-dihydrobenzo[d]isothiazol-6-yl)amino)-1H-pyrazol-5-yl)cyclopentyl isopropylcarbamate]
pIC50 (CDK2/Cyclin E1): 9.52
pIC50 (CDK1/Cyclin B1): 8.26

CN1c2ccc(Nc3cc([C@@H]4CC[C@H](OC(=O)NC5(C)COC5)C4)[nH]n3)c(F)c2CS1(=O)=O (single isomer, unassigned) [Example 332a, cis-3-(3-((4-fluoro-1-methyl-2,2-dioxido-1,3-dihydrobenzo[c]isothiazol-5-yl)amino)-1H-pyrazol-5-yl)cyclopentyl(3-methyloxetan-3-yl)carbamate]
pIC50 (CDK2/Cyclin E1): 8.72
pIC50 (CDK1/Cyclin B1): 6.44

CC[C@H](C)NC(=O)O[C@H]1CC[C@@H](c2cc(Nc3ccc4c(c3F)CS(=O)(=O)N4C3COC3)n[nH]2)C1 (racemic) [Example 261, cis-3-(3-((4-fluoro-1-(oxetan-3-yl)-2,2-dioxido-1,3-dihydrobenzo[c]isothiazol-5-yl)amino)-1H-pyrazol-5-yl)cyclopentyl((S)-sec-butyl)carbamate]
pIC50 (CDK2/Cyclin E1): 8.89
pIC50 (CDK1/Cyclin B1): 7.31

CC(C)NC(=O)O[C@H]1CC[C@@H](c2cc(Nc3cc4c(cc3F)N(CCO)S(=O)(=O)C4)n[nH]2)C1 (single isomer, unassigned) [Example 296a, cis-3-(3-((6-fluoro-1-(2-hydroxyethyl)-2,2-dioxido-1,3-dihydrobenzo[c]isothiazol-5-yl)amino)-1H-pyrazol-5-yl)cyclopentyl isopropylcarbamate]
pIC50 (CDK2/Cyclin E1): 7.82
pIC50 (CDK1/Cyclin B1): 6.10

CC(C)NC(=O)O[C@H]1CC[C@@H](c2cc(Nc3ccc4c(c3F)CN(C3CCN(S(C)(=O)=O)C3)S4(=O)=O)n[nH]2)C1 (relative stereo) [Example 85, cis-3-(3-((4-fluoro-2-(1-(methylsulfonyl)pyrrolidin-3-yl)-1,1-dioxido-2,3-dihydrobenzo[d]isothiazol-5-yl)amino)-1H-pyrazol-5-yl)cyclopentyl isopropylcarbamate]
pIC50 (CDK2/Cyclin E1): 8.34
pIC50 (CDK1/Cyclin B1): 6.33

CC(C)NC(=O)O[C@H]1CC[C@@H](c2cc(Nc3ccc4c(c3)S(=O)(=O)NC4C)[nH]n2)C1 (single isomer, unassigned) [Example 5a, cis-3-(5-((3-methyl-1,1-dioxido-2,3-dihydrobenzo[d]isothiazol-6-yl)amino)-1H-pyrazol-3-yl)cyclopentyl isopropylcarbamate]
pIC50 (CDK2/Cyclin E1): 8.66
pIC50 (CDK1/Cyclin B1): 7.31

O=C(NC1CCC1)O[C@H]1CC[C@@H](c2cc(Nc3ccc4c(c3F)CNS4(=O)=O)n[nH]2)C1 (relative stereo) [Example 157, cis-3-(3-((4-fluoro-1,1-dioxido-2,3-dihydrobenzo[d]isothiazol-5-yl)amino)-1H-pyrazol-5-yl)cyclopentyl cyclobutylcarbamate]
pIC50 (CDK2/Cyclin E1): 7.82
pIC50 (CDK1/Cyclin B1): 6.62

CC1(NC(=O)O[C@H]2CC[C@@H](c3cc(Nc4ccc5c(c4F)CNS5(=O)=O)n[nH]3)C2)COC1 (single isomer, unassigned) [Example 164b, cis-3-(3-((4-fluoro-1,1-dioxido-2,3-dihydrobenzo[d]isothiazol-5-yl)amino)-1H-pyrazol-5-yl)cyclopentyl(3-methyloxetan-3-yl)carbamate]
pIC50 (CDK2/Cyclin E1): 8.08
pIC50 (CDK1/Cyclin B1): 6.72

CC1(C)CCN1C(=O)O[C@H]1CC[C@@H](c2cc(Nc3ccc4c(c3F)CNS4(=O)=O)n[nH]2)C1 (relative stereo) [Example 155, cis-3-(3-((4-fluoro-1,1-dioxido-2,3-dihydrobenzo[d]isothiazol-5-yl)amino)-1H-pyrazol-5-yl)cyclopentyl 2,2-dimethylazetidine-1-carboxylate]
pIC50 (CDK2/Cyclin E1): 8.89
pIC50 (CDK1/Cyclin B1): 7.89

CC1(NC(=O)O[C@H]2CC[C@@H](c3cc(Nc4cc5c(cc4F)NS(=O)(=O)C5)n[nH]3)C2)CC1 (relative stereo) [Example 295, cis-3-(3-((6-fluoro-2,2-dioxido-1,3-dihydrobenzo[c]isothiazol-5-yl)amino)-1H-pyrazol-5-yl)cyclopentyl(1-methylcyclopropyl)carbamate]
pIC50 (CDK2/Cyclin E1): 7.64
pIC50 (CDK1/Cyclin B1): 6.37

CCCNC(=O)O[C@H]1CC[C@@H](c2cc(Nc3ccc4c(c3)CCS(=O)(=O)N4)n[nH]2)C1 (relative stereo) [Example 247, cis-3-(3-((2,2-dioxido-3,4-dihydro-1H-benzo[c][1,2]thiazin-6-yl)amino)-1H-pyrazol-5-yl)cyclopentyl propylcarbamate]
pIC50 (CDK2/Cyclin E1): 8.01
pIC50 (CDK1/Cyclin B1): 7.10

CCCNC(=O)O[C@@H]1CC[C@H](c2cc(Nc3ccc4c(c3F)CS(=O)(=O)N4CC(F)(F)F)n[nH]2)C1 [Example 266a]
pIC50 (CDK2/Cyclin E1): 8.48
pIC50 (CDK1/Cyclin B1): 7.02

Reference: patent publication US20260297080A1, “BICYCLIC COMPOUNDS AS CDK INHIBITORS” (BeOne Medicines I GmbH, priority 2022, published 2026)
